Strand notation (5' to 3'): a small letter for the sugar, then the base; units joined by * are phosphorothioate-linked, units joined directly phosphodiester-linked; [ ] holds rarer units or linkages, { } end groups; capitals alone tell only the bases. e = 2'-O-(2-methoxyethyl) (MOE); [5mC] = 5-methylcytosine; d = 2'-deoxy (DNA)
Assays:
Factor 11 mRNA = Factor 11 mRNA in cynomolgus monkey liver, day 55 (Example 46); type: in vivo, cynomolgus monkeys; conditions: 25 mg/kg subcutaneously, primer probe set LTS00301
Method: (§1) Groups, each consisting of two male and two female monkeys, were injected subcutaneously with 25 mg/kg of ISIS 416850, ISIS 449709, ISIS 445522, ISIS 449710, ISIS 449707, ISIS 449711, ISIS 449708, 416858, and ISIS 445531. Antisense oligonucleotide was administered to the monkeys at 25 mg/kg three times per week for week 1 and 25 mg/kg twice per week for weeks 2 to 8. A control group, consisting of two male and two female monkeys was injected subcutaneously with PBS according to the same dosing regimen. Body weights were taken 14 days and 7 days before the start of treatment and were then measured weekly throughout the treatment period. Blood samples were collected 14 days and 5 days before the start of treatment and subsequently several times during the dosing regimen for PT and aPTT measurements, and measurement of various hematologic factors. On day 55, the monkeys were euthanized by exsanguination while under deep anesthesia, and organs harvested for further analysis.
On day 55, RNA was extracted from liver tissue for real-time PCR analysis of Factor 11 using primer probe set LTS00301. Results are presented as percent inhibition of Factor 11, relative to PBS control.

Factor 11 protein = Factor 11 protein in monkey plasma by sandwich ELISA (Example 46); type: in vivo, cynomolgus monkeys; conditions: 25 mg/kg subcutaneously
Method: as §1
Plasma samples from all monkey groups taken on different days were analyzed by a sandwich-style ELISA assay (Affinity Biologicals Inc.) using an affinity-purified polyclonal anti-Factor 11 antibody as the capture antibody and a peroxidase-conjugated polyclonal anti-Factor 11 antibody as the detecting antibody. Monkey plasma was diluted 1:50 for the assay. Peroxidase activity was expressed by incubation with the substrate o-phenylenediamine. The color produced was quantified using a microplate reader at 490 nm and was considered to be proportional to the concentration of Factor 11 in the samples.
The results are presented in Table 147, expressed as percentage reduction relative to that of the PBS control.

[1] = Viscosity of ISIS antisense oligonucleotides, micro-viscometer at 25 °C (Example 47); type: physicochemical; conditions: for Concentration: concentration of the viscosity sample, UV reading at 260 nM at 85° C.; for Viscosity: in water, micro-viscometer at 25° C., at the concentration of the same line
Method: The viscosity of antisense oligonucleotides targeting human Factor 11 was measured with the aim of screening out antisense oligonucleotides which have a viscosity more than 40 cP at a concentration of 165-185 mg/mL.
ISIS oligonucleotides (32-35 mg) were weighed into a glass vial, 120 μL of water was added and the antisense oligonucleotide was dissolved into solution by heating the vial at 50° C. Part of (75 μL) the pre-heated sample was pipetted to a micro-viscometer (Cambridge). The temperature of the micro-viscometter was set to 25° C. and the viscosity of the sample was measured. Another part (20 μL) of the pre-heated sample was pipetted into 10 mL of water for UV reading at 260 nM at 85° C. (Cary UV instrument).

human Factor 11 mRNA = assay: Dose-dependent inhibition of human Factor 11 in HepG2 cells, electroporation 375-12,000 nM (Example 32); type: cell-based; conditions: for Percent inhibition of Factor 11 mRNA at 375 nM / Percent inhibition of Factor 11 mRNA at 750 nM / IC50: electroporation; for Percent inhibition of Factor 11 mRNA at 375 nM / Percent inhibition of Factor 11 mRNA at 750 nM / Percent inhibition of Factor 11 mRNA at 1,500 nM / Percent inhibition of Factor 11 mRNA at 3,000 nM / Percent inhibition of Factor 11 mRNA at 6,000 nM / Percent inhibition of Factor 11 mRNA at 12,000 nM: approx. 16 hours, relative to untreated control cells; for Percent inhibition of Factor 11 mRNA at 1,500 nM: electroporation, 1,500 nM; for Percent inhibition of Factor 11 mRNA at 3,000 nM: electroporation, 3,000 nM; for Percent inhibition of Factor 11 mRNA at 6,000 nM: electroporation, 6,000 nM; for Percent inhibition of Factor 11 mRNA at 12,000 nM: electroporation, 12,000 nM; for IC50: Factor 11 mRNA expression
Method: These gapmers were tested at various doses in HepG2 cells. Cells were plated at a density of 20,000 cells per well and transfected using electroporation with 375 nM, 750 nM, 1,500 nM, 3,000 nM, 6,000 nM and 12,000 nM concentrations of antisense oligonucleotide, as specified in Table 47. After a treatment period of approximately 16 hours, RNA was isolated from the cells and Factor 11 mRNA levels were measured by quantitative real-time PCR. Human Factor 11 primer probe set RTS 2966 was used to measure mRNA levels. Factor 11 mRNA levels were adjusted according to total RNA content, as measured by RIBOGREEN. Results are presented as percent inhibition of Factor 11, relative to untreated control cells.
ISIS 416850, ISIS 416858, ISIS 445522, and ISIS 445531 (see Table 45 above) were re-tested in vitro along with the microwalk gapmers under the same conditions described above.
The first two listed gapmers in Table 47 are the original gapmers (ISIS 416850 and ISIS 416858) from which the remaining gapmers were designed via microwalk and are designated by an asterisk.

Substance	% inhibition of Factor 11 mRNA in liver relative to the PBS control (Factor 11 mRNA)	Inhibition of Factor 11 protein relative to the PBS control (percentage reduction) (Factor 11 protein; Day 10, plasma)	Inhibition of Factor 11 protein relative to the PBS control (percentage reduction) (Factor 11 protein; Day 17, plasma)	Inhibition of Factor 11 protein relative to the PBS control (percentage reduction) (Factor 11 protein; Day 24, plasma)	Inhibition of Factor 11 protein relative to the PBS control (percentage reduction) (Factor 11 protein; Day 31, plasma)	Inhibition of Factor 11 protein relative to the PBS control (percentage reduction) (Factor 11 protein; Day 38, plasma)	Inhibition of Factor 11 protein relative to the PBS control (percentage reduction) (Factor 11 protein; Day 45, plasma)	Inhibition of Factor 11 protein relative to the PBS control (percentage reduction) (Factor 11 protein; Day 52, plasma)	Inhibition of Factor 11 protein relative to the PBS control (percentage reduction) (Factor 11 protein; Day 55, plasma)	Inhibition of Factor 11 protein relative to the PBS control (percentage reduction) (Factor 11 protein; Day −5, plasma)	Inhibition of Factor 11 protein relative to the PBS control (percentage reduction) (Factor 11 protein; Day −14, plasma)	Concentration [1]	Viscosity [1]	Percent inhibition of Factor 11 mRNA at 375 nM (human Factor 11 mRNA)	Percent inhibition of Factor 11 mRNA at 750 nM (human Factor 11 mRNA)	Percent inhibition of Factor 11 mRNA at 1,500 nM (human Factor 11 mRNA)	Percent inhibition of Factor 11 mRNA at 3,000 nM (human Factor 11 mRNA)	Percent inhibition of Factor 11 mRNA at 6,000 nM (human Factor 11 mRNA)	Percent inhibition of Factor 11 mRNA at 12,000 nM (human Factor 11 mRNA)	IC50 (human Factor 11 mRNA)
449711 (antisense eA*e[5mC]*dA*dG*dT*dT*dT*d[5mC]*dT*dG*dG*d[5mC]*eA*eG) [compound 449711]	0%	5%	3%	6%	9%	2%	4%	3%	5%	1%	0%	209 mg/mL	6 cP	6%	14%	1%	7%	32%	52%	11000 nM
449710 (antisense e[5mC]*eA*e[5mC]*dA*dG*dT*dT*dT*d[5mC]*dT*dG*dG*d[5mC]*eA*eG*eG) [compound 449710]	52%	10%	14%	17%	25%	20%	23%	4%	24%	0%	1%	186 mg/mL	7 cP	2%	21%	52%	70%	82%	87%	1590 nM
449709 (antisense eG*e[5mC]*eA*e[5mC]*dA*dG*dT*dT*dT*d[5mC]*dT*dG*dG*d[5mC]*eA*eG*eG*e[5mC]) [compound 449709]	69%	27%	35%	44%	45%	46%	48%	47%	50%	0%	1%	171 mg/mL	65 cP	52%	71%	80%	87%	92%	95%	380 nM
449708 (antisense eA*e[5mC]*eA*dG*dT*dT*dT*d[5mC]*dT*dG*dG*e[5mC]*eA*eG) [compound 449708]	46%	7%	15%	3%	14%	9%	2%	6%	6%	0%	1%	188 mg/mL	9 cP	0%	0%	22%	33%	61%	85%	4460 nM
449707 (antisense e[5mC]*eA*e[5mC]*eA*dG*dT*dT*dT*d[5mC]*dT*dG*dG*e[5mC]*eA*eG*eG) [compound 449707]	47%	16%	19%	21%	29%	28%	35%	29%	32%	0%	0%	166 mg/mL	7 cP	7%	35%	63%	73%	85%	91%	1260 nM

Reference: patent publication US20230263822A1, “MODULATION OF FACTOR 11 EXPRESSION” (Ionis Pharmaceuticals, Inc., priority 2008, published 2023)
